According to PMC11506774 (Biomolecules, 2024):
≈ marks a conversion by molar mass, not a printed value.

Key:
RD cells = experiment: Cytotoxicity assay (CCK-8); assay type: cell-based; settings: 24 h, 2-fold dilutions from 1 mg/mL, CCK-8, absorbance 450 nm, mean ± SD, at least two independent experiments
Method: RD cells at a density of 4 × 10^4/100 µL/well were seeded in 96-well plates 24 h prior to the cytotoxicity assay. The peptide P25 and its derivatives were reconstituted in DMSO to a concentration of 25 mg/mL and then diluted to 1 mg/mL in DMEM with 100 mM HEPES, from which 2-fold serial dilutions of the peptides were produced, starting with the same medium. DMSO diluted in the same medium served as the control. Fifty microliters of diluted peptides and the control medium were added to the cells and cultured for 24 h. After cultivation, 5 µL of the enhanced CCK-8 reagent (Beyotime, C0043, Shanghai, China) were added directly to each well of the cell culture and cultured for an additional hour. Absorbance at 450 nm was detected using a TECAN Infinite 200 PRO instrument. The cell viability was normalized to the control, and the concentration at which a peptide inhibited 50% of the cell viability (CC50) was calculated using GraphPad Prism 9.5.1 (GraphPad software, San Diego, CA, USA).

EV-A71/SZK2021 = settings: co-treatment, RD cells, 100 TCID50/50 µL, 24 h, crystal violet; mean ± SD, at least two independent experiments; NO = no inhibition observed
Echo 30/WZ16 = settings: co-treatment, RD cells, 100 TCID50/50 µL, 24 h, crystal violet; mean ± SD, at least two independent experiments; >125 = protection less than 50% at 125 µg/mL; NO = no inhibition observed
Poliovirus 3/nOPV3 = settings: 24 h
EV-D68/BCH895A = settings: co-treatment, RD cells, 100 TCID50/50 µL, 24 h, crystal violet; mean ± SD, at least two independent experiments; >125 = protection less than 50% at 125 µg/mL; NO = no inhibition observed

## CC[C@H](C)[C@H](NC(=O)[C@H](Cc1c[nH]cn1)NC(=O)[C@H](CCCCN)NC(=O)[C@@H]1CCCN1C(=O)[C@H](CCCCN)NC(=O)[C@H](CCSC)NC(=O)[C@H](Cc1ccc(O)cc1)NC(=O)[C@@H](NC(=O)[C@H](CCCNC(=N)N)NC(=O)[C@@H](NC(=O)[C@@H](NC(=O)[C@@H](NC(=O)[C@@H](NC(=O)[C@H](Cc1ccccc1)NC(=O)CN)[C@@H](C)O)C(C)C)[C@@H](C)O)C(C)C)C(C)C)C(=O)N[C@@H](CCCCN)C(=O)N[C@@H](C)C(=O)N[C@@H](Cc1c[nH]c2ccccc12)C(=O)N[C@@H](C)C(=O)O [Peptide P25]
RD cells
  CC50: 256.43 ± 7.15 µg/mL (≈ 115 µM)
EV-A71/FY0805; 6 h
  IC50 of P25 at 6 h of pre-treatment: 3.9 µg/mL
EV-A71/FY0805; 24 h
  IC50 (µg/mL) EV-A71 /FY0805: 32.35 ± 7.23 µg/mL (≈ 14.5 µM)
EV-A71/SZK2021
  IC50 (µg/mL) EV-A71 /SZK2021: 41.32 ± 8.46 µg/mL
Echo 30/WZ16
  IC50 (µg/mL) Echo 30 /WZ16: >125 µg/mL
Poliovirus 3/nOPV3
  IC50 (µg/mL) Poliovirus 3 /nOPV3: >125 µg/mL
EV-D68/BCH895A
  IC50 (µg/mL) EV-D68 /BCH895A: 57.56 ± 5.81 µg/mL
